The term IC50 denotes the concentration needed to halve the response being measured. Low readings indicate greater potency in that assay, high ones weaker potency in that assay.

Structures are written as SMILES.

The assay concerns the target testosterone 5α-reductase. Kind of assay: 5α-reductase inhibitory activity (conversion of radiolabelled testosterone to 5α-dihydrotestosterone, microsomal enzyme specimen). The assay is classed as biochemical, rats. To be noted: rat prostate microsomes; pH 6.6; 25° C.; 60 minutes; 8.5 pmol labelled testosterone. The procedure:
The 5α-reductase inhibitory activity was determined as follows.
Prostate gland cells of rats were crushed and a specimen of testosterone 5α-reductase was then prepared by separating microsome from the crushed liquid mixture. The conversion of the testosterone to 5α-dihydrotestosterone by the use of the above-prepared enzyme specimen was monitored by radioisotopically labelled testosterone. The reaction mixture was extracted with ethyl acetate and the extract was developed twice by silica gel thin layer chromatography (solvent system, dichloromethane:cyclohexane:acetone=15:4:1). The amount of 5α-dihydrotestosterone was determined from the intensities of the radioactivity.
A 30 μl amount of a 0.05 M phosphate buffer (pH=6.6), 10 μl of an enzyme specimen, 8.5 pmol of labelled testosterone, 50 nmol of a reduced form of NADP (nicotinamide adenine dinucleotide phosphate), and 10 μl of a test sample were mixed (final volume […]). The mixture was incubated at a temperature of 25° C. for 60 minutes.
The reaction was stopped by the addition of 100 μl of ethyl acetate, and the reaction mixture was extracted by vigorous shaking. The extract was developed in the same manner as mentioned above, and the intensity of the radioisotope was measured by using a scintillation counter.
The above-mentioned determination was applied to samples having various concentrations. […]

As for `CCCCCCCCCCCCCCCCCC(=O)O` [Stearic acid], the 50% inhibitory concentration (IC50) was determined as 1.3 mM. The value for `CC/C=C\C/C=C\C/C=C\CCCCCCCC(=O)O` [Linolenic acid] was 1.6 mM.
